In publication PMC13108699, “Mass balance and metabolite profiling of ^14C-Zalunfiban in humans following single-dose subcutaneous administration” (Xenobiotica; the fate of foreign compounds in biological …, 2025):
Read-outs that look alike come from different tables or passages of the source.

Experiment: Whole blood zalunfiban and M1 concentrations (LC-MS/MS) and non-compartmental PK, phase 1 mass balance study
Format: in vivo, human
Details: for Cmax / Tmax / AUC(0-inf) / AUC(0-t) / k el / Vd/F / half-life: male, human, whole blood; for AUC(0-inf): read-out: AUC0-inf, whole blood zalunfiban; for AUC(0-t): read-out: AUC0-last, whole blood zalunfiban; for k el: read-out: Kel, whole blood zalunfiban (converted); for Vd/F: read-out: Vz/F, whole blood zalunfiban; for half-life: read-out: t1/2, whole blood zalunfiban (converted)
Excerpt: This was a Phase 1, single-centre, open-label, non-controlled, mass balance and metabolite profiling study of ^14C-radiolabeled zalunfiban in health male volunteers (NCT04284995). The planned participant enrolment size was 8, with 2 additional alternate participants available on the morning of dosing. Following a 28-day screening period, all eligible participants were admitted to the research unit the evening before dosing. After fasting overnight, participants completed a standard breakfast prior to dosing on study day 1. After dosing, subjects fasted for 4 h. Fluids were permitted ad libitum starting 1-hour after dosing. The investigational product (IP) was injected SC on study day 1 and participants were housed for 11 days, which is past the final 240-hour sampling time, and then discharged following final evaluation. The clinical study was conducted at the Pharmaron Clinical Pharmacology Centre (Baltimore, MD) and the study protocol, consent forms and regulatory documents were reviewed and approved by the Advarra Institutional Review Board (Columbia, MD).
All participants received the same fixed mass dose of SC 9.5 mg ^14C-zalunfiban (5 μCi), in 0.5 mL of formulation solution. This zalunfiban dose was chosen to both ensure participant safety and to make certain the study results were clinically relevant. For the latter, by strict inclusion of participants with a body weight within the range of 73–99 kg, the zalunfiban doses were no higher than the highest administered in the currently ongoing Phase 3 study, which includes three groups of 0.110 mg/kg zalunfiban, 0.130 mg/kg zalunfiban, and placebo ([NIH 2025]). The ^14C radiolabel dose of 5 μCi presented minimal radiation risk to healthy subjects while providing a high likelihood of meeting the study objectives.
Serial blood samples were collected to determine zalunfiban and its major metabolite des-gly-zalunfiban (M1) whole blood concentrations, additional whole blood metabolite profiling, and total whole blood ^14C at pre dose (−60 min); 5, 10, 15, 30 and 45 min; and 1, 1.5, 2, 2.5, 3, 4, 6, 8, 12, 16, 24, 36, 48, 72, 96, 120, 144, 168, 192, 216 and 240 h after dosing. Blood samples were taken via an indwelling IV catheter or by direct venipuncture into designated blood collection tubes, with K2 EDTA used as an anticoagulant. Study samples were diluted immediately after blood collection, at a ratio of 1:4 using prechilled 30% acetonitrile, then separated into storage tubes and immediately frozen at −80°C for shipment to the analytical laboratory. At the laboratory, extraction of ^14C-zalunfiban from whole blood was achieved by repeated microcentrifugation, vortex mixing, and harvesting to collect analytes (see Metabolite profiling and excretion for more details).
Zalunfiban and M1 whole blood concentrations were measured using a validated LC-MS/MS method in compliance with the ICH-M10 guideline. The method utilised a Sciex 5500 mass spectrometer, Shimadzu LC30AD HPLC system, and a Shimadzu AD multiplate autosampler. Mobile phase A (MPA) was 10 mM ammonium acetate with 0.1% ammonium hydroxide and mobile phase B (MPB) was 10 mM ammonium acetate with acetonitrile:ammonium hydroxide. An Acquity UPLC BEH Hilic 1.7 micrometer column (Waters Corporation) was used at a temperature of 50 °C. The column flow rate was 0.4 mL/min and injection volumes were 2.0 microliters. The gradient for analytical pumps was set at 30% MAP and 70% MPB.
For whole blood LC-MS/MS the calibration ranges were 5.00–500.00 ng/mL for zalunfiban and 25.00–2500.00 ng/mL for M1. Zalunfiban and M1 sample concentrations below 5 ng/mL and 25 ng/mL, respectively, were reported as below the lower limit of quantification (<LLOQ).
Zalunfiban and whole blood radioactivity concentrations were used to calculate PK parameters using standard non-compartmental analysis (NCA) methods using Phoenix WinNonlin software (Phoenix, Princeton, NJ). […]

[1] = geometric mean, n=8, single SC 9.5 mg
[2] = sc, 9.5 mg, geometric mean, n=8, single SC 9.5 mg
[3] = sc, 9.5 mg, mean, n=8, single SC 9.5 mg
[4] = sc, 9.5 mg, median, n=8, single SC 9.5 mg

In the case of `NCC(=O)Nc1cncc(-c2nn3c(=O)cc(N4CCNCC4)nc3s2)c1` [Zalunfiban, 2-amino-N-{5-[5-oxo-7-(piperazin-1-yl)-5H-[1,3,4]thia-diazolo[3,2-a]pyrimidin-2-yl]pyridin-3-yl}acetamide], the “Time of last measurable whole blood zalunfiban concentration” value (all participants) is reported as at most 4 h, the “CL/F, whole blood zalunfiban” value [1] is reported as 80.7 L/h and the “tlast, whole blood zalunfiban” value [1] is reported as 3.4 h. For the same compound, the Cmax [2] was 94.6 ng/mL, the Tmax [2] was 15 min and the AUC(0-inf) [2] was 116 ng·h/mL. The AUC(0-t) [2] was 107 ng·h/mL, the k el [2] was 0.00021 s⁻¹ and the Vd/F [2] was 107 L. It also gave a half-life [2] of 55.2 min, a half-life (sc, 9.5 mg, mean terminal half-life, n=8, single SC 9.5 mg) of about 60 min and a Tmax [3] of 15.6 min. It also gave a Cmax (sc, 9.5 mg, mean, n=8, single SC 9.5 mg ^14C-zalunfiban) of 95.2 ng/mL, an AUC(0-inf) [3] of 118 ng·h/mL and an AUC(0-t) [3] of 109 ng·h/mL. The k el [3] was 0.000218 s⁻¹, the Vd/F [3] was 114 L and the Cmax [4] was 96.9 ng/mL. For the same compound, the Tmax [4] was about 15 min, the AUC(0-inf) [4] was 123 ng·h/mL and the AUC(0-t) [4] was 114 ng·h/mL. For the same compound, the k el [4] was 0.000229 s⁻¹, the half-life [4] was 50.4 min and the Tmax (subcutaneous, 9.5 mg, median) was 15 min. For the same compound, the Vd/F (median, n=8, single SC 9.5 mg) was 96.6 L, the “CL/F, whole blood zalunfiban” value (mean, n=8, single SC 9.5 mg) was 81.8 L/h and the “tlast, whole blood zalunfiban” value (mean, n=8, single SC 9.5 mg) was 3.4 h. The “CL/F, whole blood zalunfiban” value (median, n=8, single SC 9.5 mg) was 76.3 L/h and the “tlast, whole blood zalunfiban” value (median, n=8, single SC 9.5 mg) was 3.5 h.
